According to patent US20110098323A1, “INHIBITORS OF BACTERIAL BIOFILM FORMATION” (MICROBIOTIX, INC., priority 2009, published 2011):

Tests used:
[1] = tested on: S. aureus ATCC 35556; assay: MBIC/MIC secondary assay; type: cell-based, Staphylococcus aureus; conditions: S. aureus ATCC 35556, Table 2; for MIC: Staphylococcus aureus, ATCC35556, read-out: MIC
[2] = tested on: S. epidermidis 18972; assay: MBIC/MIC secondary assay (crystal violet biofilm staining / OD600 growth); type: cell-based, Staphylococcus epidermidis; conditions: S. epidermidis 18972, Table 2; for MBIC: lowest concentration inhibiting biofilm formation ≧80%; for MIC: Staphylococcus epidermidis, lowest concentration inhibiting growth ≧80%, read-out: MIC
Description: Assays for detecting and measuring bacterial biofilm formation are known in the art. An example of a biofilm formation assay useful in detecting and characterizing biofilm inhibitor compounds is described in Example 1, infra. Briefly, bacterial cells are inoculated into growth medium in individual wells of a 96-well assay plate in the presence or absence of a compound (known biofilm inhibitor or test compound). After incubation for a specified time, growth medium and non-biofilm bacterial cells are removed from each of the wells. The bacterial cells in any biofilms that are adhered to the surface of a well are fixed by addition of ethanol. The ethanol is removed, and the fixed biofilm bacteria cells are stained with crystal violet (CV). The intensity of CV staining is directly correlated with bacterial biofilm formation and is measured in the wells by reading the optical density at 600 nm (OD600). The difference in biofilm formation between untreated control and treated cultures provides an indication of relative biofilm inhibition activity (anti-biofilm activity). Use of different concentrations of an inhibitor in multiple and otherwise duplicate cultures permits determination of a compound's Minimal Biofilm Inhibitory Concentration (MBIC), which is defined herein as the lowest concentration of a compound that inhibits biofilm formation by at least 80% (i.e., ≧80%) compared to untreated control cultures.
A higher throughput was achieved by formatting the assay for use in flat-bottomed 96-well assay plates (Costar 3590 assay plates, Corning Life Sciences, Lowell, Mass.). The biofilm cultures grew on the bottoms of each well in a surface attached mode. In each assay plate, columns 1 and 12 contained untreated cultures, which served as negative controls (0% biofilm inhibition). Each of the assay wells in columns 2-11 contained a unique small molecule from the Microbiotix Screening Library (MSL) at a final concentration of 100 μM. Assay plates were inoculated with 200 μl/well of a culture of Staphylococcus pidermidis 18972 in 0.5×Tryptic Soy Broth (TSB; Becton Dickinson, Franklin Lakes, N.J.) in which the concentration of glucose was adjusted to 0.25% (w/v). The bacterial inocula were prepared by making a 1:100 dilution of an overnight culture grown in TSB in the media used for the screen. After inoculation, assay plates were sealed with foil tape and incubated at 37° C. for 18-20 hours (h). The optical density at 600 nm (OD600) was measured for each well using a VICTOR2V™ multiplate reader (Perkin Elmer, Waltham, Mass.) in order to quantify overall bacterial growth. The assay plates were processed to remove bacterial growth media and non-biofilm cells from the bottom of each assay well. This was accomplished by using a BioTek ELx405™ plate washer (BioTek Instruments, Inc., Winooski, Vt.). Biofilm bacteria were fixed by addition of 50 μl of 95% ethanol for 30 minutes (min). The ethanol was removed, and the fixed biofilm cultures were stained with 50 μl of 0.06% crystal violet (CV) for 60 min. Excess CV was removed by repeated washes using the BioTek ELx405™ plate washer. The amount of CV bound to each assay well was quantified by measuring OD600 using a VICTOR2V™ plate reader (Perkin Elmer).
A secondary assay provided a quantitative measure of both anti-biofilm activity and antibacterial activity in terms of the Minimal Biofilm Inhibitory Concentration (MBIC) and the Minimal Inhibitory Concentration (MIC), respectively. The MBIC and MIC are defined as the lowest compound concentrations that inhibit biofilm formation and bacterial growth, respectively, by at least 80% (i.e., ≧80%). The MBIC/MIC assay is formatted in a manner that is similar to the Microbroth dilution assays described by the Clinical and Laboratory Standards Institute (CLSI; formerly NCCLS) in protocol M7-A7. The growth conditions were optimized for biofilm growth in 96-well assay plates such that the resulting CV staining was within the linear range of detection. […]

[3] = In vitro cytotoxicity assay (CC50), Alamar Blue; type: cell-based; conditions: human, HeLa cells, 10% Fetal Bovine Serum
Description: Validated hits were tested for general cytotoxicity against a mammalian cell line. In this assay, an assay plate was seeded with an immortalized human cell line (HeLa) and exposed to a series of two-fold dilutions of each test compound for 72 hours in standard media containing 10% Fetal Bovine Serum. After exposure to the compounds, the cellular viability was assessed using Alamar Blue™ (AccuMed International, Inc.), an oxidation-reduction indicator that is useful for quantitatively measuring cell-mediated cytotoxicity. Alamar Blue reduction was quantified using fluorescence measurements, and the data were analyzed using a two-parameter curve-fitting program (Assay Explorer, Elsevier MDL, San Rafael, Calif.) to determine the CC50 value, i.e., the compound concentration that decreases cellular viability by 50%. Compounds with CC50/MBIC≧50 were given highest priority. Validated hits that met the criteria for high priority were re-ordered from the original vendor and re-tested.

| MIC [1] [µM] | MIC [2] [µM] | SMILES | MBIC [1] [µM] | MBIC [2] [µM] | CC50 at 72 h [3] [µM] |
| --- | --- | --- | --- | --- | --- |
| ≥ 100 | ≥ 100 | COc1cc(/C=C2\SC(=S)N(c3cccc(Cl)c3)C2=O)cc(Br)c1O [MSL-049731, 3-(3-chlorophenyl)-5-(3-bromo-4-hydroxy-5-methoxybenzylidene)-2-thioxothiazolidin-4-one] | 6.25 | 25 |  |
| ≥ 100 | ≥ 100 | COc1ccc(C2=C/C(=C/c3ccc(O)c(OC)c3)C(=O)O2)c(OC)c1 [MSL-051097, 3-(4-hydroxy-3-methoxybenzylidene)-5-(2,4-dimethoxyphenyl)furan-2(3H)-one] | 6.25 | 25 | 29.4 |
| ≥ 100 | ≥ 100 | CCOc1cc(/C=C2\SC(=S)N(c3ccc(Br)cc3)C2=O)ccc1O [MSL-049293, 3-(4-bromophenyl)-5-(3-ethoxy-4-hydroxybenzylidene)-2-thioxothiazolidin-4-one] | 1.5625 | 12.5 | ≥ 100 |
